According to patent publication EP4582423A1, “NOVEL TRICYCLIC DERIVATIVE COMPOUND AND USES THEREOF” (Hanmi Pharm. Co., Ltd., priority 2022, dated 2024):

System: HCT116 MTAP-/- cells
Assay: Cell growth inhibition test (SRB staining)
Format: cell-based
Conditions: Homo sapiens, HCT-116, 144 h; HCT116 MTAP-/- cells, 0.64 nM - 2,000 nM, 6 dose points, 6 days, SRB staining, absorbance at 540 nm; read-out: HCT116 MTAP-/- cell growth inhibition (GI50)
Experimental: The synthetic compounds above were tested for cell growth inhibition against HCT116 cells.
HCT116 MTAP-/- (homozygous knockout of MTAP gene in HCT116 MTAP-WT cells by CRISPER/Cas9 method) cells were maintained in RPMI1640 medium containing 10 % FBS and 1 % penicillin-streptomycin. Approximately 5×10^2 cells were seeded in a 96-well plate and treated with a test compound. (0.64 nM - 2,000 nM, 6 dose points for HCT116 MTAP-/- cells for 5x and 6 days) cell growth was measured by SRB staining and absorbance was detected at 540 nm on a Synergy™ NEO microplate reader. The 50 % growth inhibition value (GI50) of the cell line was calculated using GraphPad Prism V9 software.

Row | GI50 [nM] | Structure (SMILES)
1 | < 100 | Cc1ncccc1-n1c(=O)c2nc(Sc3ccc(F)cc3)n(C)c2c2ccc(Cl)cc21 [Compound 36, 7-chloro-2-((4-fluorophenyl)thio)-1-methyl-5-(2-methylpyridin-3-yl)-1,5-dihydro-4H-imidazo[4,5-c]quinolin-4-one]
2 | < 100 | Cc1ncccc1-n1c(=O)c2nc(Sc3ccc(F)c(F)c3)n(C)c2c2ccc(Cl)cc21 [Compound 37, 7-chloro-2-((3,4-difluorophenyl)thio)-1-methyl-5-(2-methylpyridin-3-yl)-1,5-dihydro-4H-imidazo[4,5-c]quinolin-4-one]
3 | < 100 | Cc1ncccc1-n1c(=O)c2nc(Sc3ccc4c(c3)OCO4)n(C)c2c2ccc(Cl)cc21 [Compound 38, 2-(benzo[d][1,3]dioxol-5-ylthio)-7-chloro-1-methyl-5-(2-methylpyridin-3-yl)-1,5-dihydro-4H-imidazo[4,5-c]quinolin-4-one]
4 | < 100 | Cc1ncccc1-n1c(=O)c2nc(Sc3ccc(F)cc3F)n(C)c2c2ccc(Cl)cc21 [Compound 39, 7-chloro-2-((2,4-difluorophenyl)thio)-1-methyl-5-(2-methylpyridin-3-yl)-1,5-dihydro-4H-imidazo[4,5-c]quinolin-4-one]
5 | > 1000 | COc1ccc(Nc2nc3c(=O)n(-c4ccccc4)c4cc(Cl)ccc4c3n2C)cc1 [Compound 40, 7-chloro-2-((4-methoxyphenyl)amino)-1-methyl-5-phenyl-1,5-dihydro-4H-imidazo[4,5-c]quinolin-4-one]
6 | > 1000 | COc1ccc(N(C)c2nc3c(=O)n(-c4ccccc4)c4cc(Cl)ccc4c3n2C)cc1 [Compound 41, 7-chloro-2-((4-methoxyphenyl)(methyl)amino)-1-methyl-5-phenyl-1,5-dihydro-4H-imidazo[4,5-c]quinolin-4-one]
7 | > 1000 | COc1ccc(Oc2nc3c(=O)n(-c4ccccc4)c4cc(Cl)ccc4c3n2C)cc1 [Compound 42, 7-chloro-2-(4-methoxyphenoxy)-1-methyl-5-phenyl-1,5-dihydro-4H-imidazo[4,5-c]quinolin-4-one]
8 | > 1000 | COc1ccc(Cc2nc3c(=O)n(-c4cccnc4C)c4cc(O)ccc4c3n2C)cc1 [Compound 43, 7-Hydroxy-2-(4-methoxybenzyl)-1-methyl-5-(2-methylpyridin-3-yl)-1,5-dihydro-4H-imidazo[4,5-c]quinolin-4-one]
9 | < 100 | C=Cc1ccc2c3c(nc(Cc4ccc(OC)cc4)n3C)c(=O)n(-c3cccnc3C)c2c1 [Compound 44, 2-(4-methoxybenzyl)-1-methyl-5-(2-methylpyridin-3-yl)-7-vinyl-1,5-dihydro-4H-imidazo[4,5-c]quinolin-4-one]
10 | < 100 | CCc1ccc2c3c(nc(Cc4ccc(OC)cc4)n3C)c(=O)n(-c3cccnc3C)c2c1 [Compound 45, 7-Ethyl-2-(4-methoxybenzyl)-1-methyl-5-(2-methylpyridin-3-yl)-1,5-dihydro-4H-imidazo[4,5-c]quinolin-4-one]
11 | < 100 | COc1ccc(Cc2nc3c(=O)n(-c4cccnc4C)c4cc(C5CC5)ccc4c3n2C)cc1 [Compound 46, 7-Cyclopropyl-2-(4-methoxybenzyl)-1-methyl-5-(2-methylpyridin-3-yl)-1,5-dihydro-4H-imidazo[4,5-c]quinolin-4-one]
12 | < 100 | C#Cc1ccc2c3c(nc(Cc4ccc(OC)cc4)n3C)c(=O)n(-c3cccnc3C)c2c1 [Compound 47, 7-ethynyl-2-(4-methoxybenzyl)-1-methyl-5-(2-methylpyridin-3-yl)-1,5-dihydro-4H-imidazo[4,5-c]quinolin-4-one]
13 | 100 to 500 | COc1ccc(Cc2nc3c(=O)n(-c4cccnc4C)c4cc(C(C)C)ccc4c3n2C)cc1 [Compound 48, 7-isopropyl-2-(4-methoxybenzyl)-1-methyl-5-(2-methylpyridin-3-yl)-1,5-dihydro-4H-imidazo[4,5-c]quinolin-4-one]
14 | 100 to 500 | COc1ccc(Cc2nc3c(=O)n(-c4cccnc4C)c4cc(C)ccc4c3n2C)cc1 [Compound 49, 2-(4-methoxybenzyl)-1,7-dimethyl-5-(2-methylpyridin-3-yl)-1,5-dihydro-4H-imidazo[4,5-c]quinolin-4-one]
15 | > 1000 | COc1ccc(Cc2nc3c(=O)n(-c4cccnc4C)c4cc(N5CCCC5)ccc4c3n2C)cc1 [Compound 50, 2-(4-methoxybenzyl)-1-methyl-5-(2-methylpyridin-3-yl)-7-(pyrrolidin-1-yl)-1,5-dihydro-4H-imidazo[4,5-c]quinolin-4-one]
16 | < 100 | COc1ccc(Cc2nc3c(=O)n(-c4cccnc4C)c4cc(OC)ccc4c3n2C)cc1 [Compound 51, 7-methoxy-2-(4-methoxybenzyl)-1-methyl-5-(2-methylpyridin-3-yl)-1,5-dihydro-4H-imidazo[4,5-c]quinolin-4-one]

Row | GI50 [nM] | Structure (SMILES)
17 | 500 to 1000 | COc1ccc(Cc2nc3c(=O)n(-c4cccnc4C)c4cc(N)ccc4c3n2C)cc1 [Compound 52, 7-amino-2-(4-methoxybenzyl)-1-methyl-5-(2-methylpyridin-3-yl)-1,5-dihydro-4H-imidazo[4,5-c]quinolin-4-one]
18 | < 100 | CNc1ccc2c3c(nc(Cc4ccc(OC)cc4)n3C)c(=O)n(-c3cccnc3C)c2c1 [Compound 53, 2-(4-methoxybenzyl)-1-methyl-7-(methylamino)-5-(2-methylpyridin-3-yl)-1,5-dihydro-4H-imidazo[4,5-c]quinolin-4-one]
19 | < 100 | CCc1ccc2c3c(nc(Cc4ccc(OC(F)F)cc4)n3C)c(=O)n(-c3cccnc3C)c2c1 [Compound 54, 2-(4-(difluoromethoxy)benzyl)-7-ethyl-1-methyl-5-(2-methylpyridin-3-yl)-1,5-dihydro-4H-imidazo[4,5-c]quinolin-4-one]
20 | < 100 | COc1ccc2c3c(nc(Cc4ccc(OC(F)F)cc4)n3C)c(=O)n(-c3cccnc3C)c2c1 [Compound 55, 2-(4-(Difluoromethoxy)benzyl)-7-methoxy-1-methyl-5-(2-methylpyridin-3-yl)-1,5-dihydro-4H-imidazo[4,5-c]quinolin-4-one]
21 | > 1000 | COc1ccc(Cc2nc3c(=O)n(-c4ccc(OC(F)F)cc4)c4nc(C(F)(F)F)ccc4c3n2C)cc1 [Compound 56, 5-(4-(Difluoromethoxy)phenyl)-2-(4-methoxybenzyl)-1-methyl-7-(trifluoromethyl)-1,5-dihydro-4H-imidazo[4,5-c][1,8]naphthyridin-4-one]
22 | < 100 | COc1ccc(Cc2nc3c(=O)n(-c4cccnc4C)c4nc(C(F)(F)F)ccc4c3n2C)cc1 [Compound 57, 2-(4-methoxybenzyl)-1-methyl-5-(2-methylpyridin-3-yl)-7-(trifluoromethyl)-1,5-dihydro-4H-imidazo[4,5-c][1,8]naphthyridin-4-one]
23 | < 100 | Cc1ncccc1-n1c(=O)c2nc(Cc3ccc(OC(F)F)cc3)n(C)c2c2ccc(C(F)(F)F)nc21 [Compound 58, 2-(4-(Difluoromethoxy)benzyl)-1-methyl-5-(2-methylpyridin-3-yl)-7-(trifluoromethyl)-1,5-dihydro-4H-imidazo[4,5-c][1,8]naphthyridin-4-one]
24 | < 100 | COc1ccc(Sc2nc3c(=O)n(-c4cccnc4C)c4nc(C(F)(F)F)ccc4c3n2C)cc1 [Compound 59, 2-((4-methoxyphenyl)thio)-1-methyl-5-(2-methylpyridin-3-yl)-7-(trifluoromethyl)-1,5-dihydro-4H-imidazo[4,5-c][1,8]naphthyridin-4-one]
25 | 100 to 500 | Cc1ncccc1-n1c(=O)c2nc(Sc3ccc(F)cc3)n(C)c2c2ccc(C(F)(F)F)nc21 [Compound 60, 2-((4-fluorophenyl)thio)-1-methyl-5-(2-methylpyridin-3-yl)-7-(trifluoromethyl)-1,5-dihydro-4H-imidazo[4,5-c][1,8]naphthyridin-4-one]
26 | < 100 | COc1ccc(Sc2nc3c(=O)n(-c4cccnc4C)c4nc(C(F)(F)F)ncc4c3n2C)cc1 [Compound 61, 2-((4-methoxyphenyl)thio)-1-methyl-5-(2-methylpyridin-3-yl)-7-(trifluoromethyl)-1,5-dihydro-4H-imidazo[4',5':4,5]pyrido[2,3-d]pyrimidin-4-one]
27 | > 1000 | CCOc1ncc2c3c(nc(Cc4ccc(OC)cc4)n3C)c(=O)n(-c3cccnc3C)c2n1 [Compound 62, 7-ethoxy-2-(4-methoxybenzyl)-1-methyl-5-(2-methylpyridin-3-yl)-1,5-dihydro-4H-imidazo[4',5':4,5]pyrido[2,3-d]pyrimidin-4-one]
28 | < 100 | COc1ccc2c3c(nc(Cc4ccc(OC(F)F)cc4)n3C)c(=O)n(-c3cccnc3C)c2n1 [Compound 63, 2-(4-(difluoromethoxy)benzyl)-7-methoxy-1-methyl-5-(2-methylpyridin-3-yl)-1,5-dihydro-4H-imidazo[4,5-c][1,8]naphthyridin-4-one]
29 | < 100 | COc1ccc(Cc2nc3c(=O)n(-c4cccnc4C)c4nc(OC)ccc4c3n2C)cc1 [Compound 64, 7-methoxy-2-(4-methoxybenzyl)-1-methyl-5-(2-methylpyridin-3-yl)-1,5-dihydro-4H-imidazo[4,5-c][1,8]naphthyridin-4-one]
30 | < 100 | CCc1ccc2c3c(nc(Cc4ccc(OC(F)F)cc4)n3C)c(=O)n(-c3cccnc3C)c2n1 [Compound 65, 2-(4-(difluoromethoxy)benzyl)-7-ethyl-1-methyl-5-(2-methylpyridin-3-yl)-1,5-dihydro-4H-imidazo[4,5-c][1,8]naphthyridin-4-one]
31 | < 100 | Cc1ncccc1-n1c(=O)c2nc(Cc3ccc(OC(F)F)cc3)n(C)c2c2ccc(C3CC3)nc21 [Compound 66, 7-cyclopropyl-2-(4-(difluoromethoxy)benzyl)-1-methyl-5-(2-methylpyridin-3-yl)-1,5-dihydro-4H-imidazo[4,5-c][1,8]naphthyridin-4-one]
